Data set [1] concerns MDBK. Put plainly: Cytotoxicity assay (CC50, sulforhodamine B staining). Type of data set: cell-based. To be noted: MDBK cells; 4 days incubation; concentration reducing cell number by 50%; preliminary results. The procedure: The test compounds were dissolved in DMSO at an initial concentration of 200 μM and then were serially diluted in culture medium.
Cells are seeded at a rate of between 5×10^3 and 5×10^4/well into 96-well plates in growth medium overnight at 37° C. in a humidified CO2 (5%) atmosphere. New growth medium containing serial dilutions of the drugs is then added. After incubation for 4 days, cultures are fixed in 50% TCA and stained with sulforhodamineB. The optical density was read at 550 nm. The cytotoxic concentration was expressed as the concentration required to reduce the cell number by 50% (CC50).
For orientation: The SRB assay estimates cell density from bound dye.

The test system of data set [2] is HCV. Conditions: cited from earlier work.
The test system of data set [3] is HCV protease. Conditions: SDS-PAGE and autoradiography assay; cited from earlier work.

Structures are written as SMILES.

Usually CC50 stands for the concentration giving 50% cytotoxicity. In the case of `C[C@]1(CO)O[C@@H](n2cc(F)c(=O)[nH]c2=O)[C@H](O)[C@@H]1O` [β-D-4′-CH3-ribo-5-fluoroU], in data set [1], the CC50 was > 167 µM.

The melting point is the temperature of the solid-liquid transition. Consider `C[C@]1(CO)O[C@@H](n2cnc3c(N)ncnc32)[C@H](O)[C@@H]1O` [β-D-4′-CH3-riboA, 9-(4-C-methyl-β-D-ribofuranosyl) adenine], for which the melting point is 96 to 97 °C (dec.). The half-maximal cytotoxic concentration (CC50) in data set [1] was > 250 µM.

`NC(=O)c1ncn([C@@H]2O[C@H](CO)[C@@H](O)[C@H]2O)n1` [Ribavirin, 1-β-D-ribofuranosyl-1-1,2,4-triazole-3-carboxamide]: the “effect on serum levels of HCV-RNA” value in data set [2] (patients, sole treatment) was “does not lower serum levels of HCV-RNA”. For the same molecule, the “patients in whom serum amino transferase levels are reduced to normal” value in data set [2] (ribavirin alone) is on record as 40%.

In the case of `Cc1cn([C@@H]2O[C@](C)(CO)[C@@H](O)[C@H]2O)c(=O)[nH]c1=O` [β-D-4′-CH3-riboT, 1-(4-C-methyl-β-D-ribofuranosyl)thymine], the melting point is 258 to 260 °C (dec.). Further, the CC50 in data set [1] was > 250 µM.

`C[C@]1(CO)O[C@@H](n2cnc3c(=O)[nH]c(N)nc32)[C@H](O)[C@@H]1O` [β-D-4′-CH3-riboG, 9-(4-C-methyl-β-D-ribofuranosyl) guanine]: in data set [1], the CC50 was > 250 µM.

Turning to `C[C@]1(CO)O[C@@H](n2ccc(=S)[nH]c2=O)[C@H](O)[C@@H]1O` [β-D-4′-CH3-ribo-4-thioU, 1-(4-C-methyl-β-D-ribofuranosyl)4-thio-uracil], the melting point was 65 to 70 °C (dec.). For the same molecule, the CC50 in data set [1] was > 250 µM.

Consider `C[C@]1(CO)O[C@@H](n2ccc(N)nc2=O)[C@H](O)[C@@H]1O` [β-D-4′-CH3-riboC, 1-(4-C-methyl-β-D-ribofuranosyl)cytosine], for which the CC50 in data set [1] was > 250 µM.

Turning to `CCCC(=O)c1cc2c(c(O)c1C)C(=O)C(=O)c1c(O)cccc1-2` [Sch 68631], the “activity against HCV protease” value in data set [3] is reported as “micromolar activity”.

The values are drawn from patent US7138376B2, “Methods and compositions for treating hepatitis C virus using 4'-modified nucleosides” (Idenix Pharmaceuticals, Inc., priority 2001, dated 2006).
